Source: patent US5545755A, “Therapeutically useful 2-aminotetralin derivatives” (priority 1995, dated 1996)
Where a name gives a salt, the structure may show the parent alone. Read-outs that look alike come from different tables or passages of the source.

Tests used:
[1] = target: T1, 5-hydroxytryptamine (5-HT1A) receptor (Bos taurus, UniProt F6Q2H9); experiment: Inhibition of 8-OH-DPAT binding in a bovine brain homogenate (5-HT1A binding)
T1 construct: bovine brain homogenate; from tissue; host or cells: bovine brain homogenate
T1 sequence (F6Q2H9 1-422): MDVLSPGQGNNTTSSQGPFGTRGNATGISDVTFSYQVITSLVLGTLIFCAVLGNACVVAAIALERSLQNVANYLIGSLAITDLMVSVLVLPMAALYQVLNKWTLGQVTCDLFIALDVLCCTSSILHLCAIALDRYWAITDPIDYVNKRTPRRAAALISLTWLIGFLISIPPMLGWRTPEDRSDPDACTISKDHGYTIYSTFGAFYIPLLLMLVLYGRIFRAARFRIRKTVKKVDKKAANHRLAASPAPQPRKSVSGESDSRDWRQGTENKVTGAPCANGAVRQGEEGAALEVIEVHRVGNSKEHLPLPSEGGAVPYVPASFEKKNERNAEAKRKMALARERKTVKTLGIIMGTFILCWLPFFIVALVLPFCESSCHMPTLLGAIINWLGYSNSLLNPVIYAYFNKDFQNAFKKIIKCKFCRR
Description: Binding: Inhibition of 8-OH-DPAT binding in a bovine brain homogenate. Potency is given as nM dose required to inhibit 50% of DPAT binding (IC50). This test measures ability to bind to 5-hydroxytryptamine (5-HT1A) receptor.

[2] = Blood pressure in chloralose anesthetized cats (BP SND/MAX); assay type: in vivo; settings: i.v., blood pressure in percent control at the dose causing 50% depression in SND
Method: BP SND/MAX: The blood pressure of the chloralose anesthetized cats in percent control at the dose causing 50% depression in SND and the maximum reduction in blood pressure as percent of the control blood pressure in the same animals observed in the dose range tested (0.001-1.0 mg/kg i.v.).

[3] = Hypothermia in mice after subcutaneous injection; assay type: in vivo; settings: Mus musculus, sc, dose depressing temperature by 2° C. in two of four mice
Method: Hypothermia: Starting with a dose of 30 mg/kg, four mice are injected subcutaneously with test compound. Twenty minutes later, the number of animals whose body temperature has decreased by 2° C. or more are counted. […] The time for last statistically significant drug affect on mean body temperature is indicated in minutes. […] Potency is given as mg/kg ED50 (dose required to depress temperature in two of four mice) as measured by Spearman-Karber statistics.

[4] = system: sympathetic nerve discharge; experiment: Sympathetic Nerve Discharge (SND) in chloralose anesthetized cats; assay type: in vivo; settings: Felis catus, iv, dose causing 50% depression in SND
Method: Sympathetic Nerve Discharge (SND): The i.v. mg/kg dose causing a 50% depression in SND in chloralose anesthetized cats and the maximum inhibition of sympathetic activity observed in the dose range tested (0.001-1.0 mg/kg i.v.).

[5] = Chem. Ab., 79:146294b; cited from earlier work
[6] = J. Pharm. Sci., 67, 880-82 (1978); cited from earlier work
[7] = system: dopamine receptors; settings: cited from earlier work
[8] = target: D2 receptor (Homo sapiens, UniProt P14416); experiment: Dopamine D2 receptor in vitro binding
Chain of D2 receptor (P14416 whole entry): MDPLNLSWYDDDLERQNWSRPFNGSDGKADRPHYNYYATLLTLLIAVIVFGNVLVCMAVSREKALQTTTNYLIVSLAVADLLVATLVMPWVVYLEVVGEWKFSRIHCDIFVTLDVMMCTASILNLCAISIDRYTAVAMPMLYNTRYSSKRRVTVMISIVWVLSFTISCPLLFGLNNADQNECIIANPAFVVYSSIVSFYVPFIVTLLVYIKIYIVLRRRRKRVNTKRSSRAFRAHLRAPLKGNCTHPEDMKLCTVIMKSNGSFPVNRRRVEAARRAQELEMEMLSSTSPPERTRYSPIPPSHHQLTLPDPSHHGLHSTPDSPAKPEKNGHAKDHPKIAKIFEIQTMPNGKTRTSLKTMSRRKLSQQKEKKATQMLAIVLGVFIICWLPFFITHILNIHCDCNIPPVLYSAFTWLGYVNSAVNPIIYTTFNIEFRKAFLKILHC
Description: The compounds of this invention where R1 is in the 8 position in the aromatic ring are very selective 5-HT1A receptor agonists having little or no dopaminergic activity. […] Both these features are beneficial to effective clinical treatment.

[9] = some patients; cited from earlier work

Compound | % BD (at SND ED50) [2] | ED50 [3] | ED50 [4] | IC50 ([1]; read-out: 5-HT1A Binding IC50) | further results
C=CCN(CC=C)C1CCc2ccccc2C1.Cl (racemic) [Example 21 Compound 6, (+-)-1,2,3,4-Tetrahydro-N,N-di-2-propenyl-2-naphthalenamine hydrochloride] | 52.0% | 0.97 mg/kg | 0.6 mg/kg |  | IC50 [1]: 50.7 nM
C=CCN[C@@H]1CCc2cccc(OC)c2[C@@H]1CC=C (relative stereo) [Example 26 Compound 1, Cis-(+-)-1,2,3,4-Tetrahydro-8-methoxy-N,1-di-(2-pro-penyl)-2-naphthalenamine hydrochloride] | 70.0% | 2.31 mg/kg | 0.16 mg/kg |  | 
Brc1cccc2c1CC(N1CCCC1)CC2 (single isomer, unassigned; (+)) [Compound 59-1, (+)-1,2,3,4-tetrahydro-2-pyrrolidino-8-bromo-tetralin] |  |  |  | 4 nM | 
NC(=O)c1cccc2c1CC(N1CCCC1)CC2 (single isomer, unassigned; (+)) [Compound 60-1, (+)-1,2,3,4-tetrahydro-2-pyrrolidino-naphthalene-8-yl-carboxamide] |  |  |  | 10.9 nM | 
CN(C)C1CCc2ccc(O)cc2C1(C)C (stereo not shown) [1,1-Dimethyl-2-(N,N-dimethylamino)-7-hydroxytetralin] |  |  |  |  | analgesic and intestinal movement accelerating actions [5]: analgesic and intestinal movement accelerating actions
COc1cccc2c1CCC(NC1CC1)C2C (stereo not shown) [1-methyl-2-(cyclopropylamino)-5-methoxytetralin] |  |  |  |  | local anesthetic activity [6]: possess local anesthetic activity
O=C1CC2(CCCC2)CC(=O)N1CCCCN1CCN(c2ncccn2)CC1 [Buspirone] |  |  |  |  | dopamine receptor antagonism [7]: antagonizes dopamine receptors at the same dose it stimulates 5-HT1A receptors
c1ccc2c(c1)CCC(N1CCCCCC1)C2 (stereo not shown) [Compound 57-3, Hexahydro-1-(1,2,3,4-tetrahydro-2-naphthalenyl)-1H-Azepine] | 75.0% | 2.3 mg/kg | 0.62 mg/kg | 103 nM | 
NC(=O)c1cccc2c1CC(N1CCCCCC1)CC2 (stereo not shown) [Compound 58-1, (1-Hexahydroazepinyl)-5,6,7,8-tetrahydronaphthalene-1-carboxamide] |  | 2.3 mg/kg |  | 26 nM | IC50 [8]: > 1000 nM
CCCN(CC1CC1)C1CCc2cccc(C(N)=O)c2C1 (stereo not shown) [Example 5 Compound 2, 1,2,3,4-Tetrahydro-2-N-cyclopropylmethyl-2-N-propyl-8-yl-carboxamide] | 40.0% | 0.31 mg/kg | 0.33 mg/kg | 13 nM | 
C=CCN(C)C1CCc2cccc(OC)c2C1.Cl (stereo not shown) [Example 15 Compound 12, 1,2,3,4-Tetrahydro-8-methoxy-N-methyl-N-2-propenyl-2-Naphthalenamine hydrochloride] | 79.0% | 1.2 mg/kg | 0.012 mg/kg |  | IC50 [1]: 7.9 nM
C=CCNC1CCc2cccc(OC)c2C1.Cl (stereo not shown) [Example 15 Compound 27, 1,2,3,4-Tetrahydro-8-methoxy-N-2-propenyl-2-naphthalenamine hydrochloride] | 62.0% | 0.31 mg/kg | 0.1 mg/kg |  | IC50 [1]: 8.9 nM
C=CCNC1CCc2cccc(O)c2C1.Cl (stereo not shown) [Example 19 Compound 2, 5,6,7,8-tetrahydro-7-(2-propenyl)amino-1-naphthalenol hydrochloride] | 78.0% | 0.73 mg/kg | 0.01 mg/kg |  | IC50 [1]: 3.5 nM
CC1(C)CC(=O)N(CCCCN2CCN(c3ncccn3)CC2)C(=O)C1 [Gepirone] |  |  |  |  | effect on depressive endpoints [9]: ameliorative effects on some depressive endpoints in some patients; dopamine receptor antagonism [7]: has dopamine antagonist properties
